These results are taken from article PMC10515483, “Structure–Reactivity Studies of 2-Sulfonylpyrimidines Allow Selective Protein Arylation” (Bioconjugate Chemistry, 2023).

The melting point is the temperature, or range, at which the solid turns liquid. A word on the solubility: it is how much of the substance goes into solution per volume.

The conditions of data set [1]: pH 7.
Excerpt: Stability and solubility assays
(§1) TopSpin. Normalised integrations of the pyrimidine aromatic 1H signals in the starting material and
(§2) product were plotted as a function of time (s), using the TMSP peak as standard for integral
(§3) calibration/normalisation and monitoring of compound solubility, allowing extraction of pseudo first
(§4) order reaction rate constants (k’). Second order rate constants (k) were back calculated from the ratio
(§5) of the pseudo first counterparts and the concentration of thiol in solution.
(§6) was confirmed by formation of a single S-arylated product (characteristic 2-alkylthioether signals),
(§7) concomitant with formation of the sulfinic acid by -product (leaving group). Hydrolytic stability
(§8) assessment was performed at pH 7.0 and pH 8.2 in a similar manner, in the absence of thiol.
(§9) Chemoselectivity. Similarly, but replacing GSH by other amino acids , reference 2-
(§10) methylsulfonylpyrimidine 4q in 50 mM KPi (pH 8.2) was incubated with 10 equivalents of either Boc-
(§11) Lys-OH, L-ser-OMe, N-Ac-Tyr-OH or Proline were used.
Data set [2] is described as follows: GSH arylation rate constants (NMR; UV-vis for fast warheads). In kind it is physicochemical. Also on record: key to rate constant (k) for the reaction with GSH / k: NR = no reaction. Particulars: for k change (vs ref): ratio to rate constant of 4q, acceleration (+) or deceleration (-). The text has this: We employed nuclear magnetic resonance (NMR) and UV–vis to quantify the reactivity of our 2-SP derivatives and other representative electrophiles (Figure 2) against cysteine. NMR allowed straightforward determination of reaction rate constants through dual monitoring of the consumption of the warhead and formation of the product by integration of their respective NMR signals (Figures S1–S3). It simultaneously provided a direct readout on reaction specificity and hydrolytic stability of the warhead. All measurements were carried out in KPi buffer in the presence of 5% d^6-dmso, which is generally well-tolerated by a wide range of proteins in in vitro studies. N-acetylcysteine methylester (NACME) and L-glutathione (GSH) are useful model cysteine nucleophiles for in vitro studies of electrophilic agents.[32] Mixing reference electrophile 2-methylsulfonylpyrimidine (4q) with NACME or GSH in a 1:10 ratio (pseudo-first-order conditions) allowed extraction of accurate and reproducible second order rate constants (k).
Figure 3 In vitro determination of electrophilic reactivity of compounds. (A) NMR assay setup for warhead/GSH reaction rate constant determination and chemoselectivity monitoring, over a 6 h time scale. Purple bead = GSH. Hydrolytic stability was determined in the same way over 36 h. d^4-Trimethylsilylpropanoate (TMSP, blue box) was used as an internal standard for monitoring the warhead solubility. Second-order reaction rate constants (k) were obtained from their pseudo-first-order counterparts (k′), by time-dependent normalized integration of the disappearing warhead signals. […] (B) Experimental second-order rate constants (y axis, log10 scale) for the reaction of representative 2-SP derivatives (left, 11 out of ca. 40 examples) and previously reported heteroarylsulfones (right) with GSH in a KPi buffer, pH 7.0, 20 °C. All rate constants were calculated as an average of at least two independent measurements. Numerical values and standard deviations at both pH 7.0 and 6.5, along with a full list of 2-SPs and other electrophile types tested, are presented in Tables S2–S6 and Figure S4. The horizontal dashed line marks the reaction rate of 2-methylsulfonylpyrimidine at pH 7.0, as a reference when comparing with other reagents (see main text).
To establish an accurate structure–reactivity profile of 2-SP reagents, we systematically determined their reaction rate constants for the arylation of GSH by NMR, at pH 7.0 and 6.5. This was a prerequisite to (i) quantify the influence of substitution on reaction rates; (ii) accurately assess the tunability and chemoselectivity of 2-SPs for cysteine arylation; (iii) determine the influence of pH on the reaction rates to further inform on the precise reaction mechanism; and (iv) benchmark the overall performance of 2-SPs with those of previously reported fast reacting heteroarylsulfones and other common cysteine reactive warheads (Figure 2C,D).

A further data set addresses T1, p53-Y220C DBD (Homo sapiens, UniProt P04637, M133L/N239Y/N268D/V203A/Y220C).
T1 construct: (residues 94-312); 6xHis/lipoyl domain/TEV protease cleavage site (N, cleaved yes); made in house; host or cells: E. coli C41
The data set is described as follows: Protein arylation by ESI mass spectrometry. In kind it is binding. On the procedure: In mass spectrometry experiments, we incubated 50 μM purified p53-Y220C DBD in KPi buffer at varying pH’s (6.0–8.0), temperatures (0 and 20 °C), and equivalents of 2-SPs (20–100). Representative 2-SPs were selected to span a broad reactivity range to determine whether trends observed in GSH in vitro assays translate to relative rates of modification of solvent exposed cysteines in folded proteins. […] The same could also be achieved with only 20 equiv of reagent by increasing the temperature to 20 °C, or raising the pH to 8.0. This is an important result because late-stage protein functionalization with bromo- and iodo-(hetero)aromatic motifs is challenging and inaccessible by metal-catalyzed arylation methodologies due to dehalogenation and/or off-target specificity. The introduction of an iodo-(hetero)aromatic motif on the protein surface facilitates drastically the crystal structure resolution with a sharp variation of density. […] Overall, we observed good correlation between GSH and protein experiments.
Figure 4 Biophysical and structural characterization of protein cysteine arylation by 2-SPs. […] Stoichiometry, reaction time/temperature, and pH are indicated in each case. X axis: m/z (Da). Y axis: normalized intensities as a percentage of the most intense peak. Middle: Structure of the modified Y220C mutant (green) superimposed onto the structure of the unmodified protein (gray, PDB entry 6SHZ)[40] showing the region around modified C182 (E) and C277 (F). Hydrogen bonds formed by the pyrimidine are highlighted as dashed yellow lines. 2Fo – Fc electron density maps are shown at a contour level of 1.3σ for segments of chain B including the modified residues C182 and C277. Bottom (F): Protein thermal stability (ΔTm, °C) of p53-Y220C, β-catenin ARD. and FGE, determined by DSF in the presence of 100 μM 2-SP derivatives. […]

Data set [3] is described as follows: Hydrolytic stability in KPi buffer without thiol (NMR). The data set is classed as physicochemical. As to conditions: pH 8.2; over 12 hours; 50 mM KPi; footnote a: crashing out of solution, no degradation product. On the procedure: NMR studies: rate constant determination and hydrolytic stability. 850 µL of 50 mM Kpi buffer solution (pH 8.2 or 7), 20 µL of the appropriate pyrimidine stock s olution (100 mM in DMSO -d6), 20 µL of TMSP stock solution (22.2 mM in DI water), 30 µL DMSO -d6, and 80 µL of GSH stock solution (0.25 M in DI water, reactivity only) were successively added/mixed at room temperature, final pH 7.0 or 6.5 (Table S1). 600 µL of this freshly prepared solution was poured into an NMR tube and immediately […]
transferred to the NMR instrument for acquisition. 1H spectra (16 scans) were recorded every 10 minutes under water suppression conditions. Following acquisition, spectra were analysed using […]
order reaction rate constants (k’).

Data set [4] can be described thus: Solubility in KPi buffer by NMR with TMSP internal standard. As to conditions: 50 mM KPi aqueous buffer, pH 7, aqueous with cosolvent or surfactant or cyclodextrin, kinetic from dmso stock.
Excerpt: Stability and solubility assays
as §1, §2, §3, §4, §5, §6, §7, §8, §9, §10, §11
The test system of another data set is p53. More on the design: method as in PMID 19411067. Particulars: in vitro; cited from earlier work.
On the set-up of data set [5]: method as in PMID 11747461. Particulars: cited from earlier work.

As to “2-methylsulfonyl-1,3,4-oxadiazole 5-phenyl [compound 8, reference compound]”, the “Solubility upon mixing (t0)” value in data set [1] turned out to be 100 µM. Further, the rate constant (k) for the reaction with GSH in data set [2] (pH 6.5, measured by UV titrations) was 35 ± 2 M⁻¹ s⁻¹; in data set [2] (pH 7.0, measured by UV titrations), 160 ± 9.2 M⁻¹ s⁻¹. In addition, the “second order rate constant k with GSH” value in data set [2] (pH 7.0, KPi buffer) is listed as “≈ 160 M^–1 s^–1”. Moreover, the “k change (vs ref)” value in data set [2] (pH 7.0) is “+6,400 fold”.
For the molecule `COc1cnc(S(C)(=O)=O)nc1` [4n], the “protein modification by ESI-MS (in words)” value at p53-Y220C DBD (50 μM protein, all conditions tested, even after 4 h at 20 °C) was “could not detect any protein modification”. The “rate constant (k) for the reaction with GSH” value in data set [2] (pH 6.5, by NMR, KPi buffer, 5% DMSO-d6) is recorded as “NR”; in data set [2] (pH 7.0, by NMR, KPi buffer, 5% DMSO-d6), “NR”. For the same molecule, the “second order rate constant k with GSH” value in data set [2] (pH 7.0, KPi buffer) was < 5.0 × 10^–5 M^–1 s^–1.
Molecule `COC(=O)c1cnc(S(C)(=O)=O)nc1` [4y] gave a melting point of 128 °C. At p53-Y220C DBD (20 equiv, pH 6.0, 0 °C), the “protein arylation by ESI-MS (in words)” value was “complete and clean double protein arylation”; the “time to complete double arylation” value is “under 30 s”. In addition, in data set [3], the “% degradation” value stood at 100%. This molecule also returned a solubility in data set [4] of at least 2000 µM. The same molecule displayed a k in data set [2] (Table S8, rate constants obtained at pH = 7) of 9900 M⁻¹ s⁻¹. In data set [2] (pH 7.0, KPi buffer), the “second order rate constant k with GSH” value is listed as “≈ 9900 M^–1 s^–1”. Moreover, in data set [2] (pH 7.0), the “k change (vs ref)” value is recorded as “+396,000 fold”. In data set [2] (relative to 4q), this molecule returned a k/kref of 396000. Also, the “ΔΔG≠1exp” value in data set [2] (relative to 4q, via -RTln(k/kref)) is -7.65 kcal/mol.
For `C=C1C(=O)C2CCN1CC2` [APR-244-MQ], the “number of cysteines reacted” value in the data set on p53 is given as “up to nine”.
Take `N[C@@H](CCC(=O)N[C@@H](CS)C(=O)NCC(=O)O)C(=O)O` [GSH, L-glutathione]: the “pKa of the sulfhydryl group” value in data set [5] is reported as 9.2.
`COC(=O)[C@H](CS)NC(C)=O` [NACME, N-acetylcysteine methylester]: in data set [5], the “pKa of the sulfhydryl group” value is recorded as 8.3.
